Experiments:
Wnt signaling = assay: TOPflash reporter assay, HEK 293 STF cells treated with Wnt3a; type: cell-based
Description: Graph represents mean±s.e.m of TOPflash signal normalized to cell number (performed in quadruplicate). […] Data shown represent mean of four independent amplification reactions, graphed as relative expression to unstimulated cells. Expression levels were normalized to β-actin mRNA. Error bars, RQ values with 95% confidence.
(§1) CK1α immunoprecipitated from lysates was incubated with purified β-catenin (100 nM) in kinase assay containing (^γ32P)ATP. Samples were processed for SDS-PAGE/autoradiography. As control, immunoprecipitates were treated with the CK1 inhibitor, CKI-7 (1 μM). […] HA immunoprecipitates were analyzed by LCMS. Graph represents mean±s.e.m. of relative abundance of pyrvinium normalized to bead control (performed in triplicate). […] (FIG. 9C) Structure of VU-WS113. […] (FIG. 9F) CK1α (100 nM) was incubated with recombinant casein (100 nM) in the presence or absence of compounds in a kinase reaction containing [γ32P]ATP. […] Mean±s.e.m. is shown (performed in triplicates).

CK1α = CK1α (Homo sapiens, UniProt P48729); assay: kinase activity of purified recombinant CK1α (Tau, casein substrates; kinase panel); type: biochemical
Description: as §1, with “LCMS.” for “LCMS. Graph represents mean±s.e.m. of relative abundance of pyrvinium normalized to bead control (performed in triplicate).”

C57Bl/6 mice [1] = assay: 2 mm ear punch wound model; type: in vivo; details: day 30
Text: (FIG. 8A) Low magnification (4×) view of H&E stained slide showing epithelial repair of wounded skin treated with 211 at 30 days after injury. […] (FIGS. 8C-D) represent H&E of low (10×) and high (20×) magnification view of pyrvinium-treated ears. (FIGS. 8E-F) Trichrome blue staining showing low (FIG. 8E, 10×) and high power (FIG. 8F, 20×) view of pyrvinium-repaired ear.
The ears of six month old C57BL/6 mice were wounded by a 2 mm ear punch (n=3). […] The wounds were monitored over a period of 1 month and the digital photographs of the healing ears were taken periodically. […] The mice were sacrificed at day 30 and histological analysis of the wounded ear was performed.
FIGS. 8C-D show H&E stained slide of low (10×) and high (20×) magnifications of pyrvinium-treated ears.

C57Bl/6 mice [2] = assay: myocardial infarct model, daily IP injection, Ki67/Sca1 histology
Description: Myocardial infarcts were induced in male C57Bl/6 mice by coronary ligation. A sham-injured cohort underwent all aspects of the procedure except ligation of the coronary artery. […] Mice were sacrificed (n=3 for each time point and each condition) on days 7, 9 and 15 after injury. Hearts were isolated for histologic analysis.

C57Bl/6 mice [3] = type: in vivo; details: p<0.05
Text: FIGS. 5A-D. Mouse MI model. Representative mouse EKG tracings pre (FIG. 5A) and post (FIG. 5B) coronary artery ligation. […] Arrows mark lateral and posterior left ventricle (LV). LVIDD, LVIDS=LV internal diameter at systole and […], respectively. RV=right ventricle. […] Cardiac dimensions were obtained from 2-D guided M-mode images (100 frames/sec) and were read blinded using short axis and a parasternal long-axis views with the leading edge method. All echo measurements were averaged over 3 consecutive beats on unsedated mice at 7 and 30 days after infarction. Statistical significance assessed by the Wilcoxon rank sum test.
Ventricular remodeling and cardiac functional parameters will be assessed by echo.
Mammalian cardiomyocytes irreversibly withdraw from the cell cycle soon after birth and undergo terminal differentiation. […] Therefore, cardiac injury causes permanent myocardial loss and cardiac dysfunction. […] Proliferation was assessed by immunostaining for Ki-67.

CK1α, sequence (P48729 whole entry): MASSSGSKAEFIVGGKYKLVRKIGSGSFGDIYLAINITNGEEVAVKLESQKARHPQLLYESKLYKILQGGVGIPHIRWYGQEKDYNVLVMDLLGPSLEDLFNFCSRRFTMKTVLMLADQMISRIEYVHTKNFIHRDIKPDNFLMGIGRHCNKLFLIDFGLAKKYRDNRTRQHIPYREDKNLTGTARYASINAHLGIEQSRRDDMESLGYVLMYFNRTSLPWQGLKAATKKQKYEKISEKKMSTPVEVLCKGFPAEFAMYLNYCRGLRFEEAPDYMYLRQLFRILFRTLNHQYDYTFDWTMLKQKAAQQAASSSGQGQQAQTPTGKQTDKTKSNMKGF

activation of CK1α (CK1α)	SMILES	inhibition of TOPflash / Wnt signaling (Wnt signaling; Wnt3a)	histology of wounded ear (C57Bl/6 mice [1]; listed as Cmpd 113)	histology of wounded ear (C57Bl/6 mice [1]; listed as compound 113)	Ki-67+ cells co-labeled with Sca1+ antibody (C57Bl/6 mice [2]; 40 μg/kg IP)	Sca1+ CPCs share of Wnt-inhibitor responsive population (C57Bl/6 mice [2]; 40 μg/kg IP) [%]	increase in left ventricular, peri-infarct Ki67+ cells (C57Bl/6 mice [2]; 40 μg/kg IP daily through day 6, 7-9 days after MI)	post-infarct proliferation of cardiac progenitors (C57Bl/6 mice [2]; 7 d after injury, control C-211)	IC50 (Wnt signaling; Wnt3a-conditioned media, 24 hours, read-out: IC50 of TOPflash (Wnt signaling) inhibition) [nM]	average difference in fractional shortening between days 7 and 30 (C57Bl/6 mice [3])
activate CK1α	Cc1cc(C(=O)Nc2ccc3cc(CN4CCOCC4)ccc3n2)c(C)n1-c1ccccc1 [VU-WS113, 2,5-dimethyl-N-(6-(morpholinomethyl)quinolin-2-yl)-1-phenyl-1H-pyrrole-3-carboxamide]	retained the capacity to inhibit Wnt signaling	injured hole was repaired	Injured hole was repaired	at least 50%	> 60	10-13 fold	significantly enhances post-infarct proliferation of cardiac progenitors	–	–
–	Cc1cc(/C=C/c2ccc3cc(N(C)C)ccc3[n+]2C)c(C)n1-c1ccccc1 [pyrvinium, 6-(Dimethylamino)-2-[2-(2,5-dimethyl-1-phenyl-1H-pyrrol-3-yl)ethenyl]-1-methylquinolinium, reference compound]	–	–	–	–	–	–	–	~10	22.3±5.2
